Measurements reported in US9212175B2, “Pharmaceutical hypocholesterolemic compositions” (Lipideon Biotechnology AG, priority 2009, dated 2015).

Columns and labels:
[1] = Determination of absorption: unidirectional permeability assay (Cloe Screen, Cyprotex); type: in vitro ADME; conditions: human, Caco-2, apical side, cell monolayer, read-out: Papp in cm · s^−1
Experimental: It has further been shown that the compounds of the invention display the desired pharmacological activity by evaluation of their potency in vivo (in mice and hamsters). The bioavailability of the compounds of the present invention has been determined by unidirectional Caco2 Permeability measurement.
Determination of Absorption
The permeability of the compounds of the present invention was determined using the Cloe Screen® (unidirectional Cloe Screen […] permeability assay; Cyprotex) and is expressed by Papp (cm·s^−1). Caco-2 cells are widely used as an in vitro model for predicting human drug absorption. The Caco-2 cell line is derived from a human colorectal carcinoma, and when cultured, the cells spontaneously differentiate into monolayers of polarised enterocytes. The cells are typically seeded on Transwell™ plates and form a confluent monolayer over 20 days prior to the experiment. On day 20, the test compound is added to the apical side of the membrane and the transport of the compound across the monolayer is monitored over a 2 hour time period. The permeability coefficient (Papp) is calculated from the equation: Papp=(dQ/dt)/(C0xA), where (dQ/dt) is the rate of permeation of the drug across the cells, C0 is the donor compartment concentration at time zero and A is the area of the cell monolayer.

Syrian Golden Hamsters = assay: Long-term LDL lowering in Syrian Golden hamsters; type: in vivo; conditions: hamsters on high fat diet, dose 3 × 1 mg/kg/day, day 14, relative to vehicle control
Experimental: Long-Term LDL Lowering in Syrian Golden Hamsters
Groups of 6 male hamsters weighing 90±10 g are fed a high fat diet (g/100 g: corn oil, 5; coconut oil, 5; cholesterol, 0.2; standard chow, 89.8) for 7 days. Afterwards vehicle or test compounds (3-10 mg/kg bw/day) in a solution of 0.5% Methylcellulose, 5% Solutol or another suitable vehicle are administered at least three times daily for 14 consecutive days. Following an overnight fasting period, blood serum is obtained from the retro-orbital sinus of each animal on day 0 (7 days after initiating of the high fat diet) and on days 8 and 15 after dosing for 7 and 14 days. The serum is assayed for total cholesterol, LDL-cholesterol, HDL-cholesterol and triglycerides. The percent change of treated relative to the vehicle control group is determined.

C56BL/6 mice = assay: Acute cholesterol absorption inhibition assay in mice; type: in vivo; conditions: [3H]-cholesterol counts in plasma 2 h after cholesterol, relative to vehicle control
Experimental: Accute Cholesterol Absorption Inhibition Assay in Mice
Compounds were added to a solution of 0.5% Methylcellulose (Sigma)/5% Solutol, BASF) or another suitable vehicle at a concentration of 0.1-1 mg/ml. C56BL/6 mice (n=3-6/group), aged 6-8 weeks were dosed orally with 0.1 ml of vehicle or 0.1 mL of vehicle containing the test compound (0.5-5 mg/kg) or ezetimibe (10 mg/kg) as positive control. Thirty minutes later all of the mice were dosed orally with 0.1 mL corn oil containing 2 μCi [^3H]-cholesterol per mouse. Two hours after administration of radiolabeled cholesterol, the animals were euthanized and blood collected. Cholesterol counts in plasma were determined, and percent inhibition of cholesterol absorption was calculated relative to the vehicle control.

Row | Papp A→B at 2 h [1] | SMILES | LDL reduction @ day 14 (%) (Syrian Golden Hamsters) | Cholesterol Absorption Inhibition (%) (C56BL/6 mice; oral dose 1 mg/kg) | Cholesterol Absorption Inhibition (%) (C56BL/6 mice; oral dose 10 mg/kg (positive control))
1 | 0.57 ×10⁻⁶ cm/s | O=C(COC1(CCc2ccc([C@@H]3[C@@H](CC[C@H](O)c4ccc(F)cc4)C(=O)N3c3ccc(F)cc3)cc2)COC1)N[C@H](CO)C(=O)O [Example 34, (R)-2-(2-(3-(4-((2S,3R)-1-(4-fluorophenyl)-3-((S)-3-(4-fluorophenyl)-3-hydroxypropyl)-4-oxoazetidin-2-yl)phenethyl)oxetan-3-yloxy)acetamido)-3-hydroxypropanoic acid] | 76% |  | 
2 | 1.68 ×10⁻⁶ cm/s | O=C(O)COC1(CCc2ccc([C@@H]3[C@@H](CC[C@H](O)c4ccc(F)cc4)C(=O)N3c3ccc(F)cc3)cc2)COC1 [Example 1, 2-(3-(4-((2S,3R)-1-(4-fluorophenyl)-3-((S)-3-(4-fluorophenyl)-3-hydroxypropyl)-4-oxoazetidin-2-yl)phenethyl)oxetan-3-yloxy)acetic acid] |  | 87% | 
3 |  | O=C(COC1(CCc2ccc([C@@H]3[C@@H](CC[C@H](O)c4ccc(F)cc4)C(=O)N3c3ccc(F)cc3)cc2)COC1)NCCS(=O)(=O)O [Example 28, 2-(2-(3-(4-((2S,3R)-1-(4-fluorophenyl)-3-((S)-3-(4-fluorophenyl)-3-hydroxypropyl)-4-oxoazetidin-2-yl)phenethyl)oxetan-3-yloxy)acetamido)ethanesulfonic acid] |  | 63% | 
4 |  | NC(=O)[C@H]1CCCN1C(=O)COC1(CCc2ccc([C@@H]3[C@@H](CC[C@H](O)c4ccc(F)cc4)C(=O)N3c3ccc(F)cc3)cc2)COC1 [Example 22, (R)-1-(2-(3-(4-((2S,3R)-1-(4-fluorophenyl)-3-((S)-3-(4-fluorophenyl)-3-hydroxypropyl)-4-oxoazetidin-2-yl)phenethyl)oxetan-3-yloxy)acetyl)pyrrolidine-2-carboxamide] |  | 80% | 
5 | 1.09 ×10⁻⁶ cm/s | O=C(COC1(CCc2ccc([C@@H]3[C@@H](CC[C@H](O)c4ccc(F)cc4)C(=O)N3c3ccc(F)cc3)cc2)COC1)NC(CO)(CO)CO [Example 46, N-(1,3-dihydroxy-2-(hydroxymethyl)propan-2-yl)-2-(3-(4-((2S,3R)-1-(4-fluorophenyl)-3-((S)-3-(4-fluorophenyl)-3-hydroxypropyl)-4-oxoazetidin-2-yl)phenethyl)oxetan-3-yloxy)acetamide] | 67% |  | 
6 |  | O=C(O)[C@@H]1CCCN1C(=O)COC1(CCc2ccc([C@@H]3[C@@H](CC[C@H](O)c4ccc(F)cc4)C(=O)N3c3ccc(F)cc3)cc2)COC1 [Example 20, (S)-1-(2-(3-(4-((2S,3R)-1-(4-fluorophenyl)-3-((S)-3-(4-fluorophenyl)-3-hydroxypropyl)-4-oxoazetidin-2-yl)phenethyl)oxetan-3-yloxy)acetyl)pyrrolidine-2-carboxylic acid] |  | 42% | 
7 | 0.14 ×10⁻⁶ cm/s | O=C(O)[C@H]1CCCN1C(=O)COC1(CCc2ccc([C@@H]3[C@@H](CC[C@H](O)c4ccc(F)cc4)C(=O)N3c3ccc(F)cc3)cc2)COC1 [Example 19, (R)-1-(2-(3-(4-((2S,3R)-1-(4-fluorophenyl)-3-((S)-3-(4-fluorophenyl)-3-hydroxypropyl)-4-oxoazetidin-2-yl)phenethyl)oxetan-3-yloxy)acetyl)pyrrolidine-2-carboxylic acid] |  | 83% | 
8 |  | O=C(O)C1CCCCN1C(=O)COC1(CCc2ccc([C@@H]3[C@@H](CC[C@H](O)c4ccc(F)cc4)C(=O)N3c3ccc(F)cc3)cc2)COC1 (stereo partly drawn) [Example 23, 1-(2-(3-(4-((2S,3R)-1-(4-fluorophenyl)-3-((S)-3-(4-fluorophenyl)-3-hydroxypropyl)-4-oxoazetidin-2-yl)phenethyl)oxetan-3-yloxy)acetyl)piperidine-2-carboxylic acid] |  | 73% | 
9 | 0.92 ×10⁻⁶ cm/s | CC(C)[C@@H](NC(=O)COC1(CCc2ccc([C@@H]3[C@@H](CC[C@H](O)c4ccc(F)cc4)C(=O)N3c3ccc(F)cc3)cc2)COC1)C(=O)O [Example 39, (R)-2-(2-(3-(4-((2S,3R)-1-(4-fluorophenyl)-3-((S)-3-(4-fluorophenyl)-3-hydroxypropyl)-4-oxoazetidin-2-yl)phenethyl)oxetan-3-yloxy)acetamido)-3-methylbutanoic acid] | 74% | 82% | 
10 | 0.73 ×10⁻⁶ cm/s | O=C(COC1(CCc2ccc([C@@H]3[C@@H](CC[C@H](O)c4ccc(F)cc4)C(=O)N3c3ccc(F)cc3)cc2)COC1)NC1(C(=O)O)CCC1 [Example 35, 1-(2-(3-(4-((2S,3R)-1-(4-fluorophenyl)-3-((S)-3-(4-fluorophenyl)-3-hydroxypropyl)-4-oxoazetidin-2-yl)phenethyl)oxetan-3-yloxy)acetamido)cyclobutanecarboxylic acid] | 80% |  | 
11 | 46 ×10⁻⁶ cm/s | O=C1[C@H](CC[C@H](O)c2ccc(F)cc2)[C@@H](c2ccc(O)cc2)N1c1ccc(F)cc1 [Ezetimibe, reference compound] |  |  | 87%
